Laboratory results from ChEMBL document CHEMBL1268905, “3D-QSAR and docking studies on pyrazolo[4,3-h]qinazoline-3-carboxamides as cyclin-dependent kinase 2 (CDK2) inhibitors” (Bioorg Med Chem Lett, 2010).

Target: Cyclin-dependent kinase 2/cyclin A (Homo sapiens, UniProt P24941)
Experiment: Inhibition of CDK2/cyclin A
Type: protein-complex assay

Structure (SMILES)	IC50 [nM]
CNC(=O)c1cn(C)c2c1C(C)(C)Cc1cnc(Nc3cccc(CN(C)C)c3)nc1-2	83
COc1ccc(CNc2ncc3c(n2)-c2c(c(C(N)=O)cn2C)CC3)cc1	57.9
CNC(=O)c1cn(C)c2c1CCc1cnc(NC3CCN(C)CC3)nc1-2	4580
COc1cccc(CNc2ncc3c(n2)-c2c(c(C(N)=O)cn2C)CC3)c1	65.9
CNC(=O)c1cn(C)c2c1C(C)(C)Cc1cnc(Nc3ccc(CN4CCN(C)CC4)cc3)nc1-2	55
CNC(=O)c1cn(C)c2c1C(C)(C)Cc1cnc(Nc3cccc(CN4CCN(C)CC4)c3)nc1-2	59
Cn1cc(C(N)=O)c2c1-c1nc(NCc3cccnc3)ncc1CC2	21
Cn1cc(C(=O)N(O)Cc2ccccc2)c2c1-c1nc(NC3CCCC3)ncc1CC2	1370
CC(=O)Nc1ccc(CNc2ncc3c(n2)-c2c(c(C(N)=O)cn2C)CC3)cc1	13
CN1CCN(c2ccc(Nc3ncc4c(n3)-c3c(c(C(N)=O)cn3C)C(C)(C)C4)cc2)CC1	17
CNC(=O)c1cn(C)c2c1C(C)(C)Cc1cnc(Nc3ccc(CN4CCOCC4)cc3)nc1-2	36
CN1CCN(c2cccc(CNc3ncc4c(n3)-c3c(c(C(N)=O)cn3C)CC4)c2)CC1	104
CN(O)C(=O)c1cn(C)c2c1CCc1cnc(NC3CCCC3)nc1-2	175
CCN1CCC(Nc2ncc3c(n2)-c2c(c(C(N)=O)cn2C)CC3)CC1	149
Cn1cc(C(N)=O)c2c1-c1nc(NCc3ccccn3)ncc1CC2	86.9
CCOC(=O)N1CCC(Nc2ncc3c(n2)-c2c(c(C(N)=O)cn2C)CC3)CC1	1
CNC(=O)c1cn(C)c2c1C(C)(C)Cc1cnc(Nc3ccc(OC4CCN(C)CC4)cc3)nc1-2	29
NC(=O)c1cn(-c2ccccc2)c2c1CCc1cnc(NC3CCCC3)nc1-2	20
Cn1cc(C(N)=O)c2c1-c1nc(NCc3ccncc3)ncc1CC2	21
CN1CCN(C(=O)N2CCC(Nc3ncc4c(n3)-c3c(c(C(N)=O)cn3C)CC4)CC2)CC1	12

Structure (SMILES)	IC50 [nM]
CNC(=O)c1cn(C)c2c1CCc1cnc(NC3CCN(C(C)=O)CC3)nc1-2	32
CNC(=O)c1cn(C)c2c1C(C)(C)Cc1cnc(Nc3cccc(OC4CCN(C)CC4)c3)nc1-2	47
CNC(=O)c1cn(C)c2c1CCc1cnc(NC3CCN(C(=O)N4CCN(C)CC4)CC3)nc1-2	1120
CNC(=O)c1cn(C)c2c1C(C)(C)Cc1cnc(Nc3ccc(N(C)C)cc3)nc1-2	59
Cn1cc(C(N)=O)c2c1-c1nc(NC3CCN(S(C)(=O)=O)CC3)ncc1CC2	1
Cn1cc(C(N)=O)c2c1-c1nc(Nc3ccc(N4CCOCC4)cc3)ncc1CC2	14
CCOC(=O)N1CCC(Nc2ncc3c(n2)-c2c(c(C(=O)NC)cn2C)CC3)CC1	57.9
NC(=O)c1cn(-c2ccc(S(N)(=O)=O)cc2)c2c1CCc1cnc(NC3CCCC3)nc1-2	5
Cn1cc(C(N)=O)c2c1-c1nc(NCc3ccc(S(C)(=O)=O)cc3)ncc1CC2	38
Cn1cc(C(N)=O)c2c1-c1nc(NCCN3CCOCC3)ncc1CC2	209
NC(=O)c1cn(CCO)c2c1CCc1cnc(NC3CCCC3)nc1-2	8
CC(CN(C)C)NC(=O)c1cn(C)c2c1CCc1cnc(NC3CCCC3)nc1-2 (centres undefined)	1760
CC(=O)N1CCC(n2cc(C(N)=O)c3c2-c2nc(NC4CCCC4)ncc2CC3)CC1	7
CN1CCN(c2ccc(Nc3ncc4c(n3)-c3c(c(C(N)=O)cn3C)CC4)cc2)CC1	2
CN1CCC(n2cc(C(N)=O)c3c2-c2nc(NC4CCCC4)ncc2CC3)CC1	6
CNC(=O)c1cn(C)c2c1CCc1cnc(NC3CCN(S(=O)(=O)c4ccccc4)CC3)nc1-2	5
CNC(=O)c1cn(C)c2c1C(C)(C)Cc1cnc(Nc3cccc(N(C)C)c3)nc1-2	220
NC(=O)c1cn(-c2ccccn2)c2c1CCc1cnc(NC3CCCC3)nc1-2	52
CNC(=O)c1cn(C)c2c1C(C)(C)Cc1cnc(Nc3ccc(CN(C)C)cc3)nc1-2	35
CNC(=O)c1cn(C)c2c1C(C)(C)Cc1cnc(Nc3cccc(N4CCOCC4)c3)nc1-2	248

Structure (SMILES)	IC50 [nM]
CN1CCN(c2cccc(Nc3ncc4c(n3)-c3c(c(C(N)=O)cn3C)CC4)c2)CC1	1
NC(=O)c1cn(Cc2ccccc2)c2c1CCc1cnc(NC3CCCC3)nc1-2	23
Cn1cc(C(N)=O)c2c1-c1nc(NCCO)ncc1CC2	19
CNC(=O)c1cn(C)c2c1CCc1cnc(NC3CCCC3)nc1-2	97.1
Cn1cc(C(N)=O)c2c1-c1nc(NCc3ccc(Br)cc3)ncc1CC2	80.9
Cn1cc(C(=O)NCc2ccccc2)c2c1-c1nc(Nc3ccccc3)ncc1CC2	1050
CNC(=O)c1cn(C)c2c1C(C)(C)Cc1cnc(Nc3ccc(N4CCOCC4)cc3)nc1-2	137
Cn1cc(C(N)=O)c2c1-c1nc(Nc3ccccc3)ncc1CC2(C)C	24
NC(=O)c1cn(CC(F)(F)F)c2c1CCc1cnc(NC3CCCC3)nc1-2	5
Cn1cc(C(N)=O)c2c1-c1nc(NC3CCN(C(=O)c4ccccc4)CC3)ncc1CC2	3
Cn1cc(C(=O)NCCO)c2c1-c1nc(Nc3ccccc3)ncc1CC2	74
Cn1cc(C(N)=O)c2c1-c1nc(NC3CCN(S(=O)(=O)c4ccccc4)CC3)ncc1CC2	4
CNC(=O)c1cn(C)c2c1C(C)(C)Cc1cnc(Nc3cccc(CN4CCOCC4)c3)nc1-2	160
COc1ccc(-n2cc(C(N)=O)c3c2-c2nc(NC4CCCC4)ncc2CC3)cc1	6
CNC(=O)c1cn(C2CCN(C)CC2)c2c1CCc1cnc(NC3CCCC3)nc1-2	59
CNC(=O)c1cn(C)c2c1C(C)(C)Cc1cnc(Nc3cccc(N4CCN(C)CC4)c3)nc1-2	31
Cn1cc(C(N)=O)c2c1-c1nc(NCc3ccccc3)ncc1CC2	51.1
CNC(=O)c1cn(C)c2c1CCc1cnc(NC3CCN(C(=O)c4ccccc4)CC3)nc1-2	25
CN1CCN(c2ccc(CNc3ncc4c(n3)-c3c(c(C(N)=O)cn3C)CC4)cc2)CC1	17
